Data as given in US10610487B2, “Salts of active ingredients with polymeric counterions” (BASF SE, priority 2015, dated 2020).
Values after ≈ are worked out from the molar mass of the structure shown. Like-named read-outs stand apart in the source and are kept apart here.

What was measured:
[1] = physchem; settings: thermodynamic from solid
[2] = CD water, 100 mg haloperidol per 250 ml, hard gelatine capsule

| solubility thermodynamic at 72 h ([1]; simulated gastric fluid) | Release of haloperidol ([2]; 0 min) | Release of haloperidol ([2]; 2 min) | Release of haloperidol ([2]; 4 min) | Release of haloperidol ([2]; 6 min) | Release of haloperidol ([2]; 8 min) | Release of haloperidol ([2]; 10 min) | Release of haloperidol ([2]; 30 min) | Release of haloperidol ([2]; 60 min) | Release of haloperidol ([2]; 120 min) | Structure (SMILES) | solubility thermodynamic at 72 h ([1]; water) |
| --- | --- | --- | --- | --- | --- | --- | --- | --- | --- | --- | --- |
| 600 µg/mL (≈ 1600 µM) | 0.0% | 0.1% | 0.2% | 0.3% | 0.4% | 0.6% | 1.5% | 1.8% | 2.3% | O=C(CCCN1CCC(O)(c2ccc(Cl)cc2)CC1)c1ccc(F)cc1 [Haloperidol, haloperidol] | 2.6 µg/mL (≈ 6.92 µM) |
|  |  |  |  |  |  |  |  |  |  | CN(C)C(=O)C(CCN1CCC(O)(c2ccc(Cl)cc2)CC1)(c1ccccc1)c1ccccc1 [Loperamide, loperamide] | 72.3 µg/mL (≈ 152 µM) |
